# Measured values: patent US4677111A, “N-benzoyl-N'-(3-nitrophenyl) urea compounds, and antitumorous compositions containing them” (Ishihara Sangyo Kaisha Ltd., priority 1984, dated 1987)
# Read-outs that look alike come from different tables or passages of the source.
# Assays:
# Acute toxicity, LD50 = details: mouse, in vivo, ip; ddY mice, intraperitoneal, Formulation Example 4
# Protocol: To ddY mice (10 animals), a drug containing one of Compound Nos. 1-4, 7, 9 and 10 of the present invention formulated in accordance with Formulation Example 4 was intraperitoneally administered, and the LD50 value was measured and found to be at least 100 mg/kg in each case, and the LD50 value of Compound No. 6 of the invention found to be at least 50 mg/kg.
# The Compound No. 2 of the present invention was preliminarily pulverized by a centrifugal pulverizer. On the other hand, 5 parts by weight of polyoxyethylene (60) hardened castor oil, 0.2 part by weight of silicone and 0.3 part by weight of a polyoxyethylene-polyoxypropylene block polymer were added to 79.5 parts by weight of a physiological saline to obtain an aqueous solution, to which 10 parts by weight of the above pulverized Compound No. 2 of the present invention was added. The mixture was pulverized in a wet system by a sand mill using glass beads (80% of particles having a particle size of not larger than 2 μm). Then, 5 parts by weight of xanthane gum (2% solution) was added thereto to obtain an aqueous suspension.
# p-388 leukemia cells [1] = experiment: Test Example 1 (Intraperitoneal-intraperitoneal) antitumour activity, increase life span; assay type: in vivo, BDF1 mice; details: Mus musculus, P388, ip, 720 h
# Protocol: To BDF1 mice, p-388 leukemia cells were intraperitoneally inoculated in an amount of 1×10^6 cells/mouse. A test drug was intraperitoneally administered twice, i.e. one day and four days after the inoculation. […] The increase life span ILS (%) of each treated group was obtained with the number of survival days of mice of the control group to which a physiological saline was administered, being evaluated as 0. The drugs were dispersions obtained by adding small amounts of surfactants (e.g. Tween-80) to the test compounds.
# ILS (%)*: Increase Life Span, calculated in accordance with the following
# formula: ILS (%) = MST100, where MST is the ratio of median survival time
# of test and control animals.
# p-388 leukemia cells [2] = experiment: Test Example 2 (intraperitoneal-oral) antitumour activity, increase life span; assay type: in vivo, BDF1 mice; details: oral drug, days 1 and 4
# Protocol: A test drug was orally administered twice i.e. one day and four days after the inoculation.
# The mixture was pulverized in a wet system by a sand mill using glass beads (80% of particles having a particle size of not larger than 2 μm). Then, 5 parts by weight of xanthane gum (2% solution) was added thereto to obtain an aqueous suspension.
# [3] = read-out: ILS (increase life span)
# [4] = i.p. drug, days 1 and 4, 100 mg/kg/day, read-out: ILS (increase life span)
compound,measurement,setting,value
"O=C(NC(=O)c1ccccc1Cl)Nc1ccc(Oc2ncc(Cl)cn2)c([N+](=O)[O-])c1 [Compound No. 4, N-(2-chlorobenzoyl)-N'-[4-(5-chloro-2-pyrimidinyloxy)-3-nitrophenyl]urea]",LD50,"Acute toxicity, LD50",≥ 100 mg/kg
same,ILS at 100 mg/kg/day,p-388 leukemia cells [1]; [3],102%
"O=C(NC(=O)c1ccc(Cl)cc1[N+](=O)[O-])Nc1ccc(Oc2ncc(Cl)cn2)c([N+](=O)[O-])c1 [Compound No. 6, N-(4-chloro-2-nitrobenzoyl)-N'-[4-(5-chloro-2-pyrimidinyloxy)-3-nitrophenyl]urea]",LD50,"Acute toxicity, LD50",≥ 50 mg/kg
same,ILS at 25 mg/kg/day,p-388 leukemia cells [1]; [3],165%
"O=C(NC(=O)c1ccccc1[N+](=O)[O-])Nc1ccc(Oc2ccc(C(F)(F)F)cn2)c([N+](=O)[O-])c1 [Compound No. 9, N-(2-nitrobenzoyl)-N'-[4-(5-trifluoromethyl-2-pyridyloxy)-3-nitrophenyl]urea]",LD50,"Acute toxicity, LD50",≥ 100 mg/kg
same,ILS at 100 mg/kg/day,p-388 leukemia cells [1]; [3],119%
"O=C(NC(=O)c1ccccc1Cl)Nc1ccc(Oc2ccc(Br)nn2)c(Cl)c1 [Comparative Compound No. 4, N--(2chlorobenzoyl)-N'--[4(6-bromo-3-pyridazinyloxy)-3-chlorophenyl]urea, reference compound]",ILS at 100 mg/kg/day,p-388 leukemia cells [1]; [4],36%
"O=C(NC(=O)c1ccccc1[N+](=O)[O-])Nc1ccc(Oc2ncc(Cl)cn2)c([N+](=O)[O-])c1 [Compound No. 2, N-(2-nitrobenzoyl)-N'-[4-(5-chloro-2-pyrimidinyloxy)-3-nitrophenyl]urea]",ILS (increase life span),p-388 leukemia cells [2]; 200 mg/kg/day,90%
same,ILS (increase life span),p-388 leukemia cells [2]; 400 mg/kg/day,108%
same,LD50,"Acute toxicity, LD50",≥ 100 mg/kg
same,ILS at 50 mg/kg/day,p-388 leukemia cells [1]; [3],134%
"O=C(NC(=O)c1ccccc1Cl)Nc1ccc(Oc2ncc(Cl)cn2)c(Cl)c1 [Comparative Compound No. 1, N--(2chlorobenzoyl)-N'--[3chloro-4-(5-chloro-2-pyrimidinyloxy)phenyl]urea]",ILS (increase life span),p-388 leukemia cells [2]; 800 mg/kg/day,11%
same,ILS (increase life span),p-388 leukemia cells [2]; 1600 mg/kg/day,24%
same,ILS at 100 mg/kg/day,p-388 leukemia cells [1]; [4],33%
"O=C(NC(=O)c1ccccc1[N+](=O)[O-])Nc1ccc(Oc2ccc(Cl)cn2)c([N+](=O)[O-])c1 [Compound No. 10, N-(2-nitrobenzoyl)-N'-[4-(5-chloro-2-pyridyloxy)-3nitrophenyl]urea]",LD50,"Acute toxicity, LD50",≥ 100 mg/kg
same,ILS at 100 mg/kg/day,p-388 leukemia cells [1]; [3],153%
"O=C(NC(=O)c1ccccc1Cl)Nc1ccc(Oc2ccc(Br)cn2)c(Cl)c1 [Comparative Compound No. 6, N--(2chlorobenzoyl)-N'--[4(5-bromo-2-pyridyl-oxy)-3-chlorophenyl]urea, reference compound]",ILS at 200 mg/kg/day,"p-388 leukemia cells [1]; i.p. drug, days 1 and 4",50%
"O=C(NC(=O)c1ccccc1[N+](=O)[O-])Nc1ccc(Oc2ncc(I)cn2)c(Cl)c1 [compound 7, N--(2nitrobenzoyl)-N'--[3chloro-4-(5-iodo-2-pyrimidinyloxy)phenyl]urea]",ILS (increase life span),p-388 leukemia cells [2]; 1600 mg/kg/day,41%
"O=C(NC(=O)c1ccccc1Cl)Nc1ccc(Oc2ccc(Cl)nn2)c(Cl)c1 [Comparative Compound No. 3, N--(2chlorobenzoyl)-N'--[3chloro-4-(6-chloro-3-pyridazinyloxy)phenyl]urea, reference compound]",ILS at 200 mg/kg/day,"p-388 leukemia cells [1]; i.p. drug, days 1 and 4",24%
"O=C(NC(=O)c1ccccc1[N+](=O)[O-])Nc1ccc(Oc2ncc(I)cn2)c([N+](=O)[O-])c1 [Compound No. 1, N-(2-nitrobenzoyl)-N'-[4-(5-iodo-2-pyrimidinyloxy)-3-nitrophenyl]urea]",LD50,"Acute toxicity, LD50",≥ 100 mg/kg
same,ILS at 50 mg/kg/day,p-388 leukemia cells [1]; [3],111%
"O=c1[nH]cc(F)c(=O)[nH]1 [5-Fluorouracil, reference compound]",ILS at 60 mg/kg/day,p-388 leukemia cells [1]; [3],85%
"O=C(NC(=O)c1ccccc1[N+](=O)[O-])Nc1ccc(Oc2ccc(C(F)(F)F)cn2)c(Cl)c1 [Comparative Compound No. 5, reference compound]",ILS at 100 mg/kg/day,p-388 leukemia cells [1]; [4],70%
"O=C(NC(=O)c1ccccc1[N+](=O)[O-])Nc1ccc(Oc2ncc(Br)cn2)c([N+](=O)[O-])c1 [Compound No. 3, N-(2-nitrobenzoyl)-N'-[4-(5-bromo-2-pyrimidinyloxy)-3-nitrophenyl]urea]",ILS (increase life span),p-388 leukemia cells [2]; 200 mg/kg/day,39%
same,ILS (increase life span),p-388 leukemia cells [2]; 400 mg/kg/day,46%
same,LD50,"Acute toxicity, LD50",≥ 100 mg/kg
same,ILS at 50 mg/kg/day,p-388 leukemia cells [1]; [3],120%
"O=C(NC(=O)c1ccccc1[N+](=O)[O-])Nc1ccc(Oc2ccc(Br)nn2)c([N+](=O)[O-])c1 [Compound No. 7, N-(2-nitrobenzoyl)-N'-[4-(6-bromo-3-pyridazinyloxy)-3-nitrophenyl]urea]",LD50,"Acute toxicity, LD50",≥ 100 mg/kg
same,ILS at 100 mg/kg/day,p-388 leukemia cells [1]; [3],152%
"O=C(NC(=O)c1ccccc1Br)Nc1ccc(Oc2ncc(I)cn2)c(Cl)c1 [Comparative Compound No. 2, N--(2bromobenzoyl)-N'--[3chloro-4-(5-iodo-2-pyrimidinyloxy)phenyl]urea]",ILS (increase life span),p-388 leukemia cells [2]; 400 mg/kg/day,4%
same,ILS (increase life span),p-388 leukemia cells [2]; 800 mg/kg/day,2%
same,ILS at 100 mg/kg/day,p-388 leukemia cells [1]; [4],65%
